Source: US10072026B2, “Crystalline form of 3-((1R,3s,5S)-3-((7-((5-methyl-1H-pyrazol-3-yl)amino)-1,6-naphthyridin-5-yl)amino)-8-azabicyclo[3.2.1]octan-8-yl)propanenitrile” (priority 2015, dated 2018)
pKi: −log10 of the molar value. Like-named read-outs stand apart in the source and are kept apart here.

Experiments:
JAK1 = JAK1 (Homo sapiens (Human), UniProt P23458); assay: LanthaScreen JAK biochemical assay (JAK1); settings: for Ki: read-out: JAK 1 (pKi) (converted)
[1] = tested on: IL-4 induced STAT6 phosphorylation in THP-1 human monocytic cells; assay: Cellular JAK potency assay, THP-1
JAK2 = JAK2 (Homo sapiens (Human), UniProt O60674); assay: LanthaScreen JAK biochemical assay (JAK2); settings: for Ki: read-out: JAK 2 (pKi) (converted)
[2] = IL-4 induced STAT6 phosphorylation, THP-1 cells
[3] = Homo sapiens, THP-1, read-out: THP-1 IL4 pIC50 (converted)
[4] = THP-1 cells, IL-4 induced STAT6 phosphorylation

Sequence of JAK1 (P23458 whole entry): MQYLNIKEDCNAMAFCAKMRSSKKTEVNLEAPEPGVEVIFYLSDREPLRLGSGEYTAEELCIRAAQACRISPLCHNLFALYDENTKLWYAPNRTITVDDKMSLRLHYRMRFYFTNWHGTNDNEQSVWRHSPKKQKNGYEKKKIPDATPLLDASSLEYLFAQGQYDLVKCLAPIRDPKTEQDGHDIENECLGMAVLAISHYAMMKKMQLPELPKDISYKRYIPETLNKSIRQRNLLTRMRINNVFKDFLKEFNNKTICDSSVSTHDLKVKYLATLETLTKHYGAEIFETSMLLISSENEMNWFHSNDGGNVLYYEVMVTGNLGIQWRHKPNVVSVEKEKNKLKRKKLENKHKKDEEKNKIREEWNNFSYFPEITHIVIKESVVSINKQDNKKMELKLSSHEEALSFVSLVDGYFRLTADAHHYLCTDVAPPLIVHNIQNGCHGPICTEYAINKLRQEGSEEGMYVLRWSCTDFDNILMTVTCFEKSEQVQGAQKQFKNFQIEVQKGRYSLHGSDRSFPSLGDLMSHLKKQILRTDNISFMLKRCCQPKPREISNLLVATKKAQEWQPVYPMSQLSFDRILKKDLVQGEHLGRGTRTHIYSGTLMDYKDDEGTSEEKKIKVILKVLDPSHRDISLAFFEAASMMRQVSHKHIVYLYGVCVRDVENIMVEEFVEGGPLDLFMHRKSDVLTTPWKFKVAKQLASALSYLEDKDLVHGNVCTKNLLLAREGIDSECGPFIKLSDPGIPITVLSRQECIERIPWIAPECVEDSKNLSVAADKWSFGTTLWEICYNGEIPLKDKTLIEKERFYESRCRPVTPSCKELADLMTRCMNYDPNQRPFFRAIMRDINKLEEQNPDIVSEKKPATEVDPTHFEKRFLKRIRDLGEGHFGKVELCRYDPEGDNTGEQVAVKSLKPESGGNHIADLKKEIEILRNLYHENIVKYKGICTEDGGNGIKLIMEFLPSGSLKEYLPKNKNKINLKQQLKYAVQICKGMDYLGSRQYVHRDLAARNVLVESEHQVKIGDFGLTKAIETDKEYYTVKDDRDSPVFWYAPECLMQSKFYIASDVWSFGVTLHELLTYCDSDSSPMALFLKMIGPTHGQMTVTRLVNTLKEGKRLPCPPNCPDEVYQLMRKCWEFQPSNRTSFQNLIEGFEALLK
Sequence of JAK2 (O60674 whole entry): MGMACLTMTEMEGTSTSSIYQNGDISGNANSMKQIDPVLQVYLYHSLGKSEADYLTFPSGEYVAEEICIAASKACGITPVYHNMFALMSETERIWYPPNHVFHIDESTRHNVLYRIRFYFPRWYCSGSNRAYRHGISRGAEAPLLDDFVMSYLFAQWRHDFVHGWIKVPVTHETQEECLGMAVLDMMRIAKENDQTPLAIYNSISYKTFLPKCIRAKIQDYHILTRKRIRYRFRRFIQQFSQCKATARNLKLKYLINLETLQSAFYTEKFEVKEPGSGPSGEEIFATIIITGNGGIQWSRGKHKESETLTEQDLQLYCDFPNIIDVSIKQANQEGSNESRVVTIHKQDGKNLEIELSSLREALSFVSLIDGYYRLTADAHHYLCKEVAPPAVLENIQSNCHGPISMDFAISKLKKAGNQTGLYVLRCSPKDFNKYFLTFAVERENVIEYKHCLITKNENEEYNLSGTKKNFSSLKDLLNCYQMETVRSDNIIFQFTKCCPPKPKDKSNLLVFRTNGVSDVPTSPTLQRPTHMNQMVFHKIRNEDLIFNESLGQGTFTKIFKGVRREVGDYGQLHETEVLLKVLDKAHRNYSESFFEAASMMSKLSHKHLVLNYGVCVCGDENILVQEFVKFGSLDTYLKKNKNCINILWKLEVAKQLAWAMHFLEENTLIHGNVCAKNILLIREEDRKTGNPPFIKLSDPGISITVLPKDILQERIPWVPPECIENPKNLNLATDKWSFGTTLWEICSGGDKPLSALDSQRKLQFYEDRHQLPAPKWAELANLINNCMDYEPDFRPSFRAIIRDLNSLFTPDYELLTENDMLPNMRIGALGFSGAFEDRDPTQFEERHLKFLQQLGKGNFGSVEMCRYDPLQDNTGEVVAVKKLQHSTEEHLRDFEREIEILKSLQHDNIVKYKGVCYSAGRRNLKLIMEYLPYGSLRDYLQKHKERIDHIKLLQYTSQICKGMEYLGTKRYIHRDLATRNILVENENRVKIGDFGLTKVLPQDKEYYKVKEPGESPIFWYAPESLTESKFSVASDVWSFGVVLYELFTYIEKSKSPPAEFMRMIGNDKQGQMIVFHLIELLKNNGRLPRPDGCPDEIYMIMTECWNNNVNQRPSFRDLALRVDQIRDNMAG

`Cc1ccc(S(=O)(=O)N2[C@@H]3CCC[C@H]2C[C@H](Nc2nc(Nc4cc(C)[nH]n4)cc4ncccc24)C3)cn1` [Example 4-25] was tested, and the “JAK 1 (pKi)” value (JAK1) was “B (B represents a pKi value between 9 and 10 (Ki between 1 nM and 0.1 nM))”, the “THP-1 IL4 pIC50” value [1, 2] was “A (A represents a pEC50 value≥7.5 (EC50≤32 nM))” and the “JAK 2 (pKi)” value (JAK2) was “B (B represents a pKi value between 9 and 10 (Ki between 1 nM and 0.1 nM))”.

Work on `Cc1cc(Nc2cc3nc(CN4CCC(F)(F)CC4)ccc3c(N[C@@H]3C[C@H]4CC[C@@H](C3)N4S(=O)(=O)c3cncc(F)c3)n2)n[nH]1` [Example 5-31] yielded a pKi (JAK1) of 9.00 to 10.00, an IC50 [1, 3] of 31.6 to 200 nM and a Ki (JAK2) of 0.1 to 1 nM.

`Cc1cc(Nc2cc3nc(CN4CCN(C)CC4)ccc3c(N[C@@H]3C[C@H]4CC[C@@H](C3)N4S(=O)(=O)c3cncc(F)c3)n2)n[nH]1` [Example 5-40] was tested, and the Ki (JAK1) was 0.1 to 1 nM, the IC50 [1, 3] was 31.6 to 200 nM and the Ki (JAK2) was 0.1 to 1 nM.

For `Cc1cc(Nc2cc3nc(CS(C)(=O)=O)ccc3c(N[C@@H]3C[C@H]4CC[C@@H](C3)N4CCCF)n2)n[nH]1` [Example 5-42], the “JAK 1 (pKi)” value (JAK1) was “B (B represents a pKi value between 9 and 10 (Ki between 1 nM and 0.1 nM))”, the “THP-1 IL4 pIC50” value [1, 2] was “C (C represents a pEC50 value<6.7 (EC50>200 nM))” and the “JAK 2 (pKi)” value (JAK2) was “B (B represents a pKi value between 9 and 10 (Ki between 1 nM and 0.1 nM))”.

`COc1cnc2cc(Nc3cc(C)[nH]n3)nc(N[C@@H]3C[C@H]4CC[C@@H](C3)N4CCCC#N)c2c1` [Example 6-12] was tested, and the “JAK 1 (pKi)” value (JAK1) was “B (B represents a pKi value between 9 and 10 (Ki between 1 nM and 0.1 nM))”, the “THP-1 IL4 pIC50” value [1, 4] was “B (B represents a pEC50 value between 6.7 and 7.5 (EC50 between 200 nM and 32 nM))” and the “JAK 2 (pKi)” value (JAK2) was “B (B represents a pKi value between 9 and 10 (Ki between 1 nM and 0.1 nM))”.

With `COC(=O)c1cnc2cc(Nc3cc(C)[nH]n3)nc(N[C@@H]3C[C@H]4CC[C@@H](C3)N4CCC#N)c2c1` [Example 6-32] the “JAK 1 (pKi)” value (JAK1) was “A (A represents a pKi value≥10 (Ki≤0.1 nM))”, the “THP-1 IL4 pIC50” value [1, 4] was “A (A represents a pEC50 value≥7.5 (EC50≤32 nM))” and the “JAK 2 (pKi)” value (JAK2) was “A (A represents a pKi value≥10 (Ki≤0.1 nM))”.

`CCC(=O)N1[C@@H]2CC[C@H]1C[C@H](Nc1nc(Nc3cc(C)[nH]n3)cc3ncc(C(=O)OC)cc13)C2` [Example 6-36] was tested, and the Ki (JAK1) was 0.1 to 1 nM, the IC50 [1, 3] was 31.6 to 200 nM and the Ki (JAK2) was 0.1 to 1 nM.

For `C=CCOC(=O)N1[C@@H]2CC[C@H]1C[C@H](Nc1nc(Nc3cc(C)[nH]n3)cc3ncc(C(=O)OC)cc13)C2` [Example 6-40], the “JAK 1 (pKi)” value (JAK1) was “B (B represents a pKi value between 9 and 10 (Ki between 1 nM and 0.1 nM))”, the “THP-1 IL4 pIC50” value [1, 4] was “A (A represents a pEC50 value≥7.5 (EC50≤32 nM))” and the “JAK 2 (pKi)” value (JAK2) was “B (B represents a pKi value between 9 and 10 (Ki between 1 nM and 0.1 nM))”.

For `COC(=O)c1cnc2cc(Nc3cc(C)[nH]n3)nc(N[C@@H]3C[C@H]4CC[C@@H](C3)N4CCF)c2c1` [Example 6-43], the “JAK 1 (pKi)” value (JAK1) was “B (B represents a pKi value between 9 and 10 (Ki between 1 nM and 0.1 nM))”, the “THP-1 IL4 pIC50” value [1, 4] was “B (B represents a pEC50 value between 6.7 and 7.5 (EC50 between 200 nM and 32 nM))” and the “JAK 2 (pKi)” value (JAK2) was “B (B represents a pKi value between 9 and 10 (Ki between 1 nM and 0.1 nM))”.

With `COC(=O)c1cnc2cc(Nc3cc(C)[nH]n3)nc(N[C@@H]3C[C@H]4CC[C@@H](C3)N4CCC(F)(F)F)c2c1` [Example 6-45] the “JAK 1 (pKi)” value (JAK1) was “B (B represents a pKi value between 9 and 10 (Ki between 1 nM and 0.1 nM))”, the “THP-1 IL4 pIC50” value [1, 4] was “B (B represents a pEC50 value between 6.7 and 7.5 (EC50 between 200 nM and 32 nM))” and the “JAK 2 (pKi)” value (JAK2) was “B (B represents a pKi value between 9 and 10 (Ki between 1 nM and 0.1 nM))”.

In the case of `COC(=O)c1cnc2cc(Nc3cc(C)[nH]n3)nc(N[C@@H]3C[C@H]4CC[C@@H](C3)N4C[C@H]3CCC(=O)O3)c2c1` [Example 6-46], the “JAK 1 (pKi)” value (JAK1) was “B (B represents a pKi value between 9 and 10 (Ki between 1 nM and 0.1 nM))”, the “THP-1 IL4 pIC50” value [1, 4] was “C (C represents a pEC50 value<6.7 (EC50>200 nM))” and the “JAK 2 (pKi)” value (JAK2) was “B (B represents a pKi value between 9 and 10 (Ki between 1 nM and 0.1 nM))”.

In the case of `Cc1cc(Nc2cc3ncc(S(C)(=O)=O)cc3c(N[C@@H]3C[C@H]4CC[C@@H](C3)N4CCC#N)n2)n[nH]1` [Example 6-50], the “JAK 1 (pKi)” value (JAK1) was “A (A represents a pKi value≥10 (Ki≤0.1 nM))”, the “THP-1 IL4 pIC50” value [1, 4] was “C (C represents a pEC50 value<6.7 (EC50>200 nM))” and the “JAK 2 (pKi)” value (JAK2) was “A (A represents a pKi value≥10 (Ki≤0.1 nM))”.

For `Cc1cc(Nc2cc3ncc(S(C)(=O)=O)cc3c(N[C@@H]3C[C@H]4CC[C@@H](C3)N4C(=O)C(F)F)n2)n[nH]1` [Example 6-52], the pKi (JAK1) was 9.00 to 10.00, the IC50 [1, 3] was greater than 200 nM and the Ki (JAK2) was 0.1 to 1 nM.

In the case of `Cc1cc(Nc2cc3ncc(S(C)(=O)=O)cc3c(N[C@@H]3C[C@H]4CC[C@@H](C3)N4CCF)n2)n[nH]1` [Example 6-54], the “JAK 1 (pKi)” value (JAK1) was “B (B represents a pKi value between 9 and 10 (Ki between 1 nM and 0.1 nM))”, the “THP-1 IL4 pIC50” value [1, 4] was “C (C represents a pEC50 value<6.7 (EC50>200 nM))” and the “JAK 2 (pKi)” value (JAK2) was “B (B represents a pKi value between 9 and 10 (Ki between 1 nM and 0.1 nM))”.

With `COc1ccnc2cc(Nc3cc(C)[nH]n3)nc(N[C@@H]3C[C@H]4CC[C@@H](C3)N4CC(F)F)c12` [Example 7-8] the “JAK 1 (pKi)” value (JAK1) was “B (B represents a pKi value between 9 and 10 (Ki between 1 nM and 0.1 nM))”, the “THP-1 IL4 pIC50” value [1, 4] was “B (B represents a pEC50 value between 6.7 and 7.5 (EC50 between 200 nM and 32 nM))” and the “JAK 2 (pKi)” value (JAK2) was “B (B represents a pKi value between 9 and 10 (Ki between 1 nM and 0.1 nM))”.

For `CCS(=O)(=O)N1[C@@H]2CC[C@H]1C[C@H](Nc1nc(Nc3cc(C)[nH]n3)c(F)c3ncccc13)C2` [Example 8-3], the “JAK 1 (pKi)” value (JAK1) was “B (B represents a pKi value between 9 and 10 (Ki between 1 nM and 0.1 nM))”, the “THP-1 IL4 pIC50” value [1, 4] was “A (A represents a pEC50 value≥7.5 (EC50≤32 nM))” and the “JAK 2 (pKi)” value (JAK2) was “B (B represents a pKi value between 9 and 10 (Ki between 1 nM and 0.1 nM))”.

`Cc1cnc2c(F)c(Nc3cc(C)[nH]n3)nc(N[C@@H]3C[C@H]4CC[C@@H](C3)N4S(C)(=O)=O)c2c1` [Example 8-17] was tested, and the “JAK 1 (pKi)” value (JAK1) was “A (A represents a pKi value≥10 (Ki≤0.1 nM))”, the “THP-1 IL4 pIC50” value [1, 4] was “B (B represents a pEC50 value between 6.7 and 7.5 (EC50 between 200 nM and 32 nM))” and the “JAK 2 (pKi)” value (JAK2) was “A (A represents a pKi value≥10 (Ki≤0.1 nM))”.

`Cc1cnc2c(F)c(Nc3cc(C)[nH]n3)nc(N[C@@H]3C[C@H]4CC[C@@H](C3)N4CCC#N)c2c1` [Example 8-18] was tested, and the “JAK 1 (pKi)” value (JAK1) was “B (B represents a pKi value between 9 and 10 (Ki between 1 nM and 0.1 nM))”, the “THP-1 IL4 pIC50” value [1, 4] was “B (B represents a pEC50 value between 6.7 and 7.5 (EC50 between 200 nM and 32 nM))” and the “JAK 2 (pKi)” value (JAK2) was “B (B represents a pKi value between 9 and 10 (Ki between 1 nM and 0.1 nM))”.

For `Cc1cnc2c(F)c(Nc3cc(C)[nH]n3)nc(N[C@@H]3C[C@H]4CC[C@@H](C3)N4S(=O)(=O)N3CC(C#N)C3)c2c1` [Example 8-19], the “JAK 1 (pKi)” value (JAK1) was “B (B represents a pKi value between 9 and 10 (Ki between 1 nM and 0.1 nM))”, the “THP-1 IL4 pIC50” value [1, 4] was “C (C represents a pEC50 value<6.7 (EC50>200 nM))” and the “JAK 2 (pKi)” value (JAK2) was “B (B represents a pKi value between 9 and 10 (Ki between 1 nM and 0.1 nM))”.
